These results are taken from patent publication US9790210B2, “N-(monocyclic aryl),N'-pyrazolyl-urea, thiourea, guanidine and cyanoguanidine compounds as TrkA kinase inhibitors” (Array BioPharma Inc., priority 2012, dated 2017).

SMILES strings stand for the structures. pIC50: −log10 of the molar value. Counter-ions that a name gives are not always drawn. Some results are limits rather than exact numbers.

The target of the assay is TrkA (Homo sapiens, UniProt P04629). Briefly: TrkA LanthaScreen Eu Kinase Binding Assay. To be noted: averaged IC50; TR-FRET binding assay; read-out: TrkA Enzyme IC50. More on the design: 6HIS tagged cytoplasmic domain from Invitrogen, Catalog No. PV3144; purchased Invitrogen PV3144. The method, then: TrkA binding activity was determined in a TrkA LanthaScreen™ Eu Kinase Binding Assay. 5 nM His-tagged recombinant human TrkA (6HIS tagged cytoplasmic domain from Invitrogen, Catalog No. PV3144) was incubated with 4 nM Alexa-Fluor® Tracer 236 (Invitrogen Cat. No. PV5592), 2 nM biotinylated anti-His (Invitrogen Cat. No. PV6090), and 2 nM europium-labeled Streptavidin (Invitrogen Cat. No. PV5899), in buffer (25 mM MOPS, pH 7.5, 5 mM MgCl2, 0.005% Triton X-100). Three fold serial dilutions of compounds of the invention in DMSO were added to a final percentage of 2% DMSO. After 60-minute incubation at 22° C., the reaction was measured using the EnVision mutlimode plate reader (PerkinElmer) via TR-FRET dual wavelength detection at […]. The percent of control was calculated using a ratiometric emission factor. The IC50 values were determined by fitting a four parameter model to the percent of control data.
Chain of TrkA (P04629 440-796 limits assumed): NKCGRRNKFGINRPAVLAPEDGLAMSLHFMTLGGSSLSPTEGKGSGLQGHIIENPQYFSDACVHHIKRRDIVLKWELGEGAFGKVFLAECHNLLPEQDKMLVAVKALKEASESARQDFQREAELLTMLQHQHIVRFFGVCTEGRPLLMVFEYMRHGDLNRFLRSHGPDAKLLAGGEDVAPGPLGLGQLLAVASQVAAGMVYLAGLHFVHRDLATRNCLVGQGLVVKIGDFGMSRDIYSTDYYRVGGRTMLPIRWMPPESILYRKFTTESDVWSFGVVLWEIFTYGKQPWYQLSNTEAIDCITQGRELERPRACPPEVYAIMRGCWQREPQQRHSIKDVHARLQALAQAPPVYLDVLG
Table A provides averaged IC50 values for compounds of the invention when tested in the assay of Example A, where A represents an averaged IC50 value<100 nM; B represents an averaged IC50 value from 100 to 1,000 nM; and C represents an averaged IC50 value from 1,000 to 10,000 nM.
(TR-FRET usually uses a lanthanide donor and a delayed reading to cut background.)
As a reminder, the pIC50 is the IC50 on a negative log10 scale, so that one unit is a factor of ten. On to `COCCCc1cc(Cl)c(Cl)cc1NC(=O)Nc1c(C)c(OC[C@@H]2CN(C)CCO2)nn1-c1ccccc1` [Example 31, (S)-1-(4,5-dichloro-2-(3-methoxypropyl)phenyl)-3-(4-methyl-3-((4-methylmorpholin-2-yl)methoxy)-1-phenyl-1H-pyrazol-5-yl)urea], for which the pIC50 is more than 7.00.
As to `COCCCc1cc(Cl)c(Cl)cc1NC(=O)Nc1c(C)c(C(=O)NC2CCOCC2)nn1-c1ccccc1` [Example 36, 5-(3-(4,5-dichloro-2-(3-methoxypropyl)phenyl)ureido)-4-methyl-1-phenyl-N-(tetrahydro-2H-pyran-4-yl)-1H-pyrazole-3-carboxamide], the pIC50 was more than 7.00.
With `COCCCc1cc(F)c(C(F)(F)F)cc1NC(=O)Nc1c(C)c(OC)nn1-c1ccccc1` [Example 48, 1-(4-fluoro-2-(3-methoxypropyl)-5-(trifluoromethyl)phenyl)-3-(3-methoxy-4-methyl-1-phenyl-1H-pyrazol-5-yl)urea] the figure was more than 7.00; with `COCCCc1cc(Cl)c(Cl)cc1NC(=O)Nc1c(C)c(OCCN2CCN(C)CC2)nn1-c1ccccc1` [Example 28, 1-(4,5-dichloro-2-(3-methoxypropyl)phenyl)-3-(4-methyl-3-(2-(4-methylpiperazin-1-yl)ethoxy)-1-phenyl-1H-pyrazol-5-yl)urea], more than 7.00; with `COCCCc1cc(Cl)c(Cl)cc1NC(=O)Nc1c(C)c(-c2ccc(=O)n(C)c2)nn1-c1ccccc1` [Example 13, 1-(4,5-dichloro-2-(3-methoxypropyl)phenyl)-3-(4-methyl-3-(1-methyl-6-oxo-1,6-dihydropyridin-3-yl)-1-phenyl-1H-pyrazol-5-yl)urea], more than 7.00.
As to `COCCCc1cc(Cl)c(Cl)cc1NC(=O)Nc1c(C)c(OC[C@H]2CCCN(C)C2)nn1-c1ccccc1` [Example 34, (S)-1-(4,5-dichloro-2-(3-methoxypropyl)phenyl)-3-(4-methyl-3-((1-methylpiperidin-3-yl)methoxy)-1-phenyl-1H-pyrazol-5-yl)urea], the pIC50 is more than 7.00.
Take `COCC(F)(F)Cc1cc(Cl)c(Cl)cc1NC(=O)Nc1c(C)c(-c2ccc(=O)n(C)c2)nn1-c1ccccc1` [Example 20, 1-(4,5-dichloro-2-(2,2-difluoro-3-methoxypropyl)phenyl)-3-(4-methyl-3-(1-methyl-6-oxo-1,6-dihydropyridin-3-yl)-1-phenyl-1H-pyrazol-5-yl)urea]: the pIC50 is more than 7.00.
For `COCCCc1cc(Cl)c(Cl)cc1NC(=O)Nc1c(C)c(C2(C#N)CCOCC2)nn1-c1ccccc1` [Example 14, 1-(3-(4-cyanotetrahydro-2H-pyran-4-yl)-4-methyl-1-phenyl-1H-pyrazol-5-yl)-3-(4,5-dichloro-2-(3-methoxypropyl)phenyl)urea], the pIC50 was more than 7.00.
As to `COCCCc1cc(Cl)c(Cl)cc1NC(=O)Nc1c(C)c(OCC2CCCN2)nn1-c1ccccc1` (stereo not shown) [Example 43, 1-(4,5-dichloro-2-(3-methoxypropyl)phenyl)-3-(4-methyl-1-phenyl-3-(pyrrolidin-2-ylmethoxy)-1H-pyrazol-5-yl)urea hydrochloride], the pIC50 was more than 7.00.
Turning to `COCCOc1cc(Cl)c(F)cc1NC(=O)Nc1c(C)c(-c2cnn(C)c2)nn1-c1ccccc1` [Example 5, 1-(4-chloro-5-fluoro-2-(2-methoxyethoxy)phenyl)-3-(1′,4-dimethyl-1-phenyl-1H,1′H-[3,4′-bipyrazol]-5-yl)urea], the pIC50 was more than 7.00.
`COCCCc1cc(Cl)c(Cl)cc1NC(=O)Nc1c(C)c(OCC2CCNCC2)nn1-c1ccccc1` [Example 41, 1-(4,5-dichloro-2-(3-methoxypropyl)phenyl)-3-(4-methyl-1-phenyl-3-(piperidin-4-ylmethoxy)-1H-pyrazol-5-yl)urea hydrochloride]: the negative logarithm of the IC50 (pIC50) is more than 7.00.
With `COCCCc1cc(Cl)c(Cl)cc1NC(=O)Nc1c(C)c(OCC2(F)CCNCC2)nn1-c1ccccc1` [Example 45, 1-(4,5-dichloro-2-(3-methoxypropyl)phenyl)-3-(3-((4-fluoropiperidin-4-yl)methoxy)-4-methyl-1-phenyl-1H-pyrazol-5-yl)urea hydrochloride] the figure was more than 7.00.
For `COCCCc1cc(Cl)c(Cl)cc1NC(=O)Nc1c(C)c(C(=O)NC2CCN(C)CC2)nn1-c1ccccc1` [Example 33, 5-(3-(4,5-dichloro-2-(3-methoxypropyl)phenyl)ureido)-4-methyl-N-(1-methylpiperidin-4-yl)-1-phenyl-1H-pyrazole-3-carboxamide], the pIC50 is more than 7.00.
As to `COCCCc1cc(Cl)c(Cl)cc1NC(=O)Nc1c(C)c(C2CCN(C)CC2)nn1-c1ccccc1` [Example 18, 1-(4,5-dichloro-2-(3-methoxypropyl)phenyl)-3-(4-methyl-3-(1-methylpiperidin-4-yl)-1-phenyl-1H-pyrazol-5-yl)urea], the pIC50 is more than 7.00.
As for `COCCOc1ncc(C(F)(F)F)cc1NC(=O)Nc1c(C)c(-c2cnn(C)c2)nn1-c1ccccc1` [Example 4, 1-(1′,4-dimethyl-1-phenyl-1H,1′H-[3,4′-bipyrazol]-5-yl)-3-(2-(2-methoxyethoxy)-5-(trifluoromethyl)pyridin-3-yl)urea], the pIC50 is 6.00 to 7.00.
Turning to `COCCCc1cc(Cl)c(Cl)cc1NC(=O)Nc1c(C)c(OC[C@@H]2CNCCO2)nn1-c1ccccc1` [Example 38, (S)-1-(4,5-dichloro-2-(3-methoxypropyl)phenyl)-3-(4-methyl-3-(morpholin-2-ylmethoxy)-1-phenyl-1H-pyrazol-5-yl)urea hydrochloride], the pIC50 is more than 7.00.
Take `CNC(=O)c1nn(-c2ccccc2)c(NC(=O)Nc2cc(C(F)(F)F)c(F)cc2CCCOC)c1C` [Example 19, 5-(3-(4-fluoro-2-(3-methoxypropyl)-5-(trifluoromethyl)phenyl)ureido)-N,4-dimethyl-1-phenyl-1H-pyrazole-3-carboxamide]: the pIC50 is more than 7.00.
For the compound `COCCCc1cc(Cl)c(Cl)cc1NC(=O)Nc1c(C)c(OC[C@H]2CN(C)CCO2)nn1-c1ccccc1` [Example 32, (R)-1-(4,5-dichloro-2-(3-methoxypropyl)phenyl)-3-(4-methyl-3-((4-methylmorpholin-2-yl)methoxy)-1-phenyl-1H-pyrazol-5-yl)urea], the pIC50 is more than 7.00.
Consider `COCCCc1ccc(C(F)(F)F)cc1NC(=O)Nc1c(C)c(-c2ccc(=O)n(C)c2)nn1-c1ccccc1` [Example 25, 1-(2-(3-methoxypropyl)-5-(trifluoromethyl)phenyl)-3-(4-methyl-3-(1-methyl-6-oxo-1,6-dihydropyridin-3-yl)-1-phenyl-1H-pyrazol-5-yl)urea], for which the pIC50 is more than 7.00.
With `COCCOc1cc(Cl)c(Cl)cc1NC(=O)Nc1c(C)c(-c2cnn(C)c2)nn1-c1ccccc1` [Example 3, 1-(4,5-dichloro-2-(2-methoxyethoxy)phenyl)-3-(1′,4-dimethyl-1-phenyl-1H,1′H-[3,4′-bipyrazol]-5-yl)urea], the pIC50 is more than 7.00.
As for `COCCCc1cc(Cl)c(Cl)cc1NC(=O)Nc1c(C)c(OCCN2CCNCC2)nn1-c1ccccc1` [Example 39, 1-(4,5-dichloro-2-(3-methoxypropyl)phenyl)-3-(4-methyl-1-phenyl-3-(2-(piperazin-1-yl)ethoxy)-1H-pyrazol-5-yl)urea dihydrochloride], the pIC50 was more than 7.00.
With `COCCCc1cc(Cl)c(Cl)cc1NC(=O)Nc1c(C)c(OC[C@H](O)CO)nn1-c1ccccc1` [Example 21, (R)-1-(4,5-dichloro-2-(3-methoxypropyl)phenyl)-3-(3-(2,3-dihydroxypropoxy)-4-methyl-1-phenyl-1H-pyrazol-5-yl)urea], the pIC50 is more than 7.00.
